Test results: patent US12122763B2, “Substituted piperidines for androgen receptor degradation” (UBIX THERAPEUTICS, INC., priority 2020, dated 2024)

Target: T1, Androgen Receptor (AR) protein (Homo sapiens, UniProt P10275, T878A)
T1 construct: endogenous in cells; host or cells: LNCaP
Assay: Androgen Receptor (AR) protein degradation assay in LNCaP cells, western blotting
Format: cell-based
Details: 20 h; for inhibition at 0.01 µM: 0.01 μM compound; for inhibition at 0.1 µM: 0.1 μM compound; for inhibition at 1 µM: 1 μM compound
Summary of the method: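 AR protein level was detected by western blot (ECL) against GAPDH or β-actin controls, with 8 μg lysate protein loaded per lane after BCA quantification. Lysates came from LNCaP cells exposed to test compound for 20 h, following 3 days of growth in RPMI/10% FBS.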

T1 sequence (P10275 whole entry T878A): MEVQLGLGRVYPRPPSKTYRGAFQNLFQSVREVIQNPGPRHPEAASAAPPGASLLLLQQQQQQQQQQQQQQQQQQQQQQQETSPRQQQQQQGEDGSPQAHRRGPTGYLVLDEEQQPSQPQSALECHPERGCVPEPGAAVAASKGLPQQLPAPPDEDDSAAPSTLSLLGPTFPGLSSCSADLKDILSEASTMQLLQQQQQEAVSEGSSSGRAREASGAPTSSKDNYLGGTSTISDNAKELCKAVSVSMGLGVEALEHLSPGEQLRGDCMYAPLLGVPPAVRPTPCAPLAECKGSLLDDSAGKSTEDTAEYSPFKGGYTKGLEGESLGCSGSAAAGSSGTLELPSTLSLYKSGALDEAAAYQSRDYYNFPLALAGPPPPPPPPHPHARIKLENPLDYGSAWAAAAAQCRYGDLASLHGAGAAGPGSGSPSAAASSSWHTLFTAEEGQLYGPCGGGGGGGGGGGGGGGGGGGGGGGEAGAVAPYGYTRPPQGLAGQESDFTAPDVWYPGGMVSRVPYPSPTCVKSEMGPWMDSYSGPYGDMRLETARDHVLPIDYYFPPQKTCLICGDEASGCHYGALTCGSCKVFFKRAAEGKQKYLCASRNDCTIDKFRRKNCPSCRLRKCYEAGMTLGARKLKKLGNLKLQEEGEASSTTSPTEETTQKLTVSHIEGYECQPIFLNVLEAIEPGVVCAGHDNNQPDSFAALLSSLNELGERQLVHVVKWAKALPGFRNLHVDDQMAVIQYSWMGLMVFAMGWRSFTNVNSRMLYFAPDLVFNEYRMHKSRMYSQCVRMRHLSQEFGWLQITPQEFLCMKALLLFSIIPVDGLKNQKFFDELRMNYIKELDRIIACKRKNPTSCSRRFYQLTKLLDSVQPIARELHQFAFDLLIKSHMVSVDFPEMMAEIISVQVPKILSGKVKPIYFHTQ
T1 sequence (Q96SW2 whole entry partner): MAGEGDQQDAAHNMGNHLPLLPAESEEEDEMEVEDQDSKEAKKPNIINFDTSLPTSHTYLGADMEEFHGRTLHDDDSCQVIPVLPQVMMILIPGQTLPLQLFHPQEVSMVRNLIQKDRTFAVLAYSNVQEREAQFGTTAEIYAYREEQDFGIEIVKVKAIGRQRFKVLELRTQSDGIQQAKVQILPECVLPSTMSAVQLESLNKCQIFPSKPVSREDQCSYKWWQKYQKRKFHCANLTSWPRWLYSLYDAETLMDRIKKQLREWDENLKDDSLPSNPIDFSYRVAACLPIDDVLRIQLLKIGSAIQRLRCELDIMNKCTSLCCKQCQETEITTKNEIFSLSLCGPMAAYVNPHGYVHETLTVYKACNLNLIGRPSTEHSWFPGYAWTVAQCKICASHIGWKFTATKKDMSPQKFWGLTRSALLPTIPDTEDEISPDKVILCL

SMILES	inhibition at 0.01 µM	inhibition at 0.1 µM	inhibition at 1 µM	inhibition at 10 µM (10 μM compound)
N#Cc1ccc(N2CCC(C(=O)Nc3ccc(N4CCC(CN5CCN(C[C@@H]6CCN(c7ccc8c(n7)CN(C7CCC(=O)NC7=O)C8=O)C6)CC5)CC4)cn3)CC2)cc1C(F)(F)F (stereo partly drawn) [Example 37, 1-(4-cyano-3-(trifluoromethyl)phenyl)-N-(5-(4-((4-(((3S)-1-(6-(2,6-dioxopiperidin-3-yl)-5-oxo-6,7-dihydro-5H-pyrrolo[3,4-b]pyridin-2-yl)pyrrolidin-3-yl)methyl)piperazin-1-yl)methyl)piperidin-1-yl)pyridin-2-yl)piperidine-4-carboxamide]	51%	93%	90%	
N#Cc1ccc(N2CCC(C(=O)Nc3ccc(N4CCC(CN5CCN(C[C@@H]6CCN(c7cc8c(cc7F)C(=O)N(C7CCC(=O)NC7=O)C8=O)C6)CC5)CC4)cn3)CC2)cc1C(F)(F)F (stereo partly drawn) [Example 38, 1-(4-cyano-3-(trifluoromethyl)phenyl)-N-(5-(4-((4-(((3S)-1-(2-(2,6-dioxopiperidin-3-yl)-6-fluoro-1,3-dioxoisoindolin-5-yl)pyrrolidin-3-yl)methyl)piperazin-1-yl)methyl)piperidin-1-yl)pyridin-2-yl)piperidine-4-carboxamide]	44%	93%	97%	
N#Cc1ccc(N2CCC(C(=O)Nc3ccc(N4CCC(CN5CCN(C[C@H]6CCN(c7ccc8c(n7)CN(C7CCC(=O)NC7=O)C8=O)C6)CC5)CC4)cn3)CC2)cc1C(F)(F)F (stereo partly drawn) [Example 39, 1-(4-cyano-3-(trifluoromethyl)phenyl)-N-(5-(4-((4-(((3R)-1-(6-(2,6-dioxopiperidin-3-yl)-5-oxo-6,7-dihydro-5H-pyrrolo[3,4-b]pyridin-2-yl)pyrrolidin-3-yl)methyl)piperazin-1-yl)methyl)piperidin-1-yl)pyridin-2-yl)piperidine-4-carboxamide]	80%	98%	95%	
C[C@@H]1CN(CC2CCN(c3ccc(NC(=O)C4CCN(c5ccc(C#N)c(C(F)(F)F)c5)CC4)nc3)CC2)CCN1C1CN(c2ccc3c(c2)C(=O)N(C2CCC(=O)NC2=O)C3=O)C1 (stereo partly drawn) [Example 40, 1-(4-cyano-3-(trifluoromethyl)phenyl)-N-(5-(4-(((3R)-4-(1-(2-(2,6-dioxopiperidin-3-yl)-1,3-dioxoisoindolin-5-yl)azetidin-3-yl)-3-methylpiperazin-1-yl)methyl)piperidin-1-yl)pyridin-2-yl)piperidine-4-carboxamide]	43%	94%	94%	
C[C@@H]1CN(C2CN(c3ccc4c(c3)C(=O)N(C3CCC(=O)NC3=O)C4=O)C2)CCN1CC1CCN(c2ccc(NC(=O)C3CCN(c4ccc(C#N)c(C(F)(F)F)c4)CC3)nc2)CC1 (stereo partly drawn) [Example 41, 1-(4-cyano-3-(trifluoromethyl)phenyl)-N-(5-(4-(((2R)-4-(1-(2-(2,6-dioxopiperidin-3-yl)-1,3-dioxoisoindolin-5-yl)azetidin-3-yl)-2-methylpiperazin-1-yl)methyl)piperidin-1-yl)pyridin-2-yl)piperidine-4-carboxamide]	62%	93%	86%	
C[C@@H]1CN(C2CCN(c3ccc4c(c3)C(=O)N(C3CCC(=O)NC3=O)C4=O)CC2)CCN1CC1CCN(c2ccc(NC(=O)C3CCN(c4ccc(C#N)c(C(F)(F)F)c4)CC3)nc2)CC1 (stereo partly drawn) [Example 42, 1-(4-cyano-3-(trifluoromethyl)phenyl)-N-(5-(4-(((2R)-4-(1-(2-(2,6-dioxopiperidin-3-yl)-1,3-dioxoisoindolin-5-yl)piperidin-4-yl)-2-methylpiperazin-1-yl)methyl)piperidin-1-yl)pyridin-2-yl)piperidine-4-carboxamide]	65%	96%	94%	
C[C@@H]1CN(C2CCN(c3ccc4c(n3)CN(C3CCC(=O)NC3=O)C4=O)CC2)CCN1CC1CCN(c2ccc(NC(=O)C3CCN(c4ccc(C#N)c(C(F)(F)F)c4)CC3)nc2)CC1 (stereo partly drawn) [Example 43, 1-(4-cyano-3-(trifluoromethyl)phenyl)-N-(5-(4-(((2R)-4-(1-(6-(2,6-dioxopiperidin-3-yl)-5-oxo-6,7-dihydro-5H-pyrrolo[3,4-b]pyridin-2-yl)piperidin-4-yl)-2-methylpiperazin-1-yl)methyl)piperidin-1-yl)pyridin-2-yl)piperidine-4-carboxamide]	68%	94%	83%	
C[C@@H]1CN(CC2CCN(c3ccc4c(n3)CN(C3CCC(=O)NC3=O)C4=O)CC2)CCN1CC1CCN(c2ccc(NC(=O)C3CCN(c4ccc(C#N)c(C(F)(F)F)c4)CC3)nc2)CC1 (stereo partly drawn) [Example 44, 1-(4-cyano-3-(trifluoromethyl)phenyl)-N-(5-(4-(((2R)-4-((1-(6-(2,6-dioxopiperidin-3-yl)-5-oxo-6,7-dihydro-5H-pyrrolo[3,4-b]pyridin-2-yl)piperidin-4-yl)methyl)-2-methylpiperazin-1-yl)methyl)piperidin-1-yl)pyridin-2-yl)piperidine-4-carboxamide]	80%	98%	93%	
C[C@H]1CN(C2CCN(c3ccc4c(n3)CN(C3CCC(=O)NC3=O)C4=O)CC2)CCN1CC1CCN(c2ccc(NC(=O)C3CCN(c4ccc(C#N)c(C(F)(F)F)c4)CC3)nc2)CC1 (stereo partly drawn) [Example 45, 1-(4-cyano-3-(trifluoromethyl)phenyl)-N-(5-(4-(((2S)-4-(1-(6-(2,6-dioxopiperidin-3-yl)-5-oxo-6,7-dihydro-5H-pyrrolo[3,4-b]pyridin-2-yl)piperidin-4-yl)-2-methylpiperazin-1-yl)methyl)piperidin-1-yl)pyridin-2-yl)piperidine-4-carboxamide]	66%	95%	87%	
C[C@H]1CN(CC2CCN(c3ccc4c(n3)CN(C3CCC(=O)NC3=O)C4=O)CC2)CCN1CC1CCN(c2ccc(NC(=O)C3CCN(c4ccc(C#N)c(C(F)(F)F)c4)CC3)nc2)CC1 (stereo partly drawn) [Example 46, 1-(4-cyano-3-(trifluoromethyl)phenyl)-N-(5-(4-(((2S)-4-((1-(6-(2,6-dioxopiperidin-3-yl)-5-oxo-6,7-dihydro-5H-pyrrolo[3,4-b]pyridin-2-yl)piperidin-4-yl)methyl)-2-methylpiperazin-1-yl)methyl)piperidin-1-yl)pyridin-2-yl)piperidine-4-carboxamide]	70%	97%	91%	
C[C@@H]1CN(CC2CCN(c3ccc(NC(=O)C4CCN(c5ccc(C#N)c(C(F)(F)F)c5)CC4)nc3)CC2)CCN1CC1CCN(c2ccc3c(n2)CN(C2CCC(=O)NC2=O)C3=O)CC1 (stereo partly drawn) [Example 47, 1-(4-cyano-3-(trifluoromethyl)phenyl)-N-(5-(4-(((3R)-4-((1-(6-(2,6-dioxopiperidin-3-yl)-5-oxo-6,7-dihydro-5H-pyrrolo[3,4-b]pyridin-2-yl)piperidin-4-yl)methyl)-3-methylpiperazin-1-yl)methyl)piperidin-1-yl)pyridin-2-yl)piperidine-4-carboxamide]	65%	95%	89%	
C[C@H]1CN(CC2CCN(c3ccc(NC(=O)C4CCN(c5ccc(C#N)c(C(F)(F)F)c5)CC4)nc3)CC2)CCN1CC1CCN(c2ccc3c(n2)CN(C2CCC(=O)NC2=O)C3=O)CC1 (stereo partly drawn) [Example 48, 1-(4-cyano-3-(trifluoromethyl)phenyl)-N-(5-(4-(((3S)-4-((1-(6-(2,6-dioxopiperidin-3-yl)-5-oxo-6,7-dihydro-5H-pyrrolo[3,4-b]pyridin-2-yl)piperidin-4-yl)methyl)-3-methylpiperazin-1-yl)methyl)piperidin-1-yl)pyridin-2-yl)piperidine-4-carboxamide]	59%	94%	87%	
N#Cc1ccc(N2CCC(C(=O)Nc3ccc(N4CCC(CN5CC6(CCN(c7ccc8c(c7)C(=O)N(C7CCC(=O)NC7=O)C8=O)CC6)C5)CC4)cn3)CC2)cc1Cl (stereo not shown) [Example 50, 1-(3-chloro-4-cyanophenyl)-N-(5-(4-((7-(2-(2,6-dioxopiperidin-3-yl)-1,3-dioxoisoindolin-5-yl)-2,7-diazaspiro[3.5]nonan-2-yl)methyl)piperidin-1-yl)pyridin-2-yl)piperidine-4-carboxamide]	61%	97%	99%	98%
CC1(C(=O)Nc2ccc(N3CCC(CN4CC5(CCN(c6ccc7c(c6)C(=O)N(C6CCC(=O)NC6=O)C7=O)CC5)C4)CC3)cn2)CCN(c2ccc(C#N)c(C(F)(F)F)c2)CC1 (stereo not shown) [Example 51, 1-(4-cyano-3-(trifluoromethyl)phenyl)-N-(5-(4-((7-(2-(2,6-dioxopiperidin-3-yl)-1,3-dioxoisoindolin-5-yl)-2,7-diazaspiro[3.5]nonan-2-yl)methyl)piperidin-1-yl)pyridin-2-yl)-4-methylpiperidine-4-carboxamide]	33%	85%	94%	
N#Cc1ccc(N2CCC(C(=O)Nc3ccc(N4CCC(CN5CC6(CCN(c7ccc8c(=O)n(C9CCC(=O)NC9=O)nnc8c7)CC6)C5)CC4)cn3)CC2)cc1C(F)(F)F (stereo not shown) [Example 52, 1-(4-cyano-3-(trifluoromethyl)phenyl)-N-(5-(4-((7-(3-(2,6-dioxopiperidin-3-yl)-4-oxo-3,4-dihydrobenzo[d][1,2,3]triazin-7-yl)-2,7-diazaspiro[3.5]nonan-2-yl)methyl)piperidin-1-yl)pyridin-2-yl)piperidine-4-carboxamide]	50%	91%	97%	
